# Key:
# Assay type in all cases: functional
# [1] = system: A549; experiment: Anticancer activity against Homo sapiens (human) A549/ATCC cells after 48 hr by SRB assay; details: A549, 48 h
# [2] = system: SR; experiment: Anticancer activity against Homo sapiens (human) SR cells after 48 hr by SRB assay
# [3] = system: MOLT-4; experiment: Anticancer activity against Homo sapiens (human) MOLT4 cells after 48 hr by SRB assay; details: MOLT-4, 48 h
# [4] = system: K562; experiment: Anticancer activity against Homo sapiens (human) K562 cells after 48 hr by SRB assay; details: K562, 48 h
# [5] = system: HL-60(TB); experiment: Anticancer activity against Homo sapiens (human) HL-60(TB) cells after 48 hr by SRB assay; details: HL-60, 48 h
# [6] = system: HCT-116; experiment: Growth inhibition of Homo sapiens (human) HCT116 cells at 10 uM after 48 hr by SRB assay; details: HCT-116, 48 h, read-out: GI
# [7] = system: HCC 2998; experiment: Growth inhibition of Homo sapiens (human) HCC2998 cells at 10 uM after 48 hr by SRB assay; details: HCC 2998, 48 h, read-out: GI
# [8] = system: NCI-H460; experiment: Growth inhibition of Homo sapiens (human) NCI-H460 cells at 10 uM after 48 hr by SRB assay; details: NCI-H460, 48 h, read-out: GI
# [9] = system: MDA-MB-468; experiment: Growth inhibition of Homo sapiens (human) MDA-MB-468 cells at 10 uM after 48 hr by SRB assay; details: MDA-MB-468, 48 h, read-out: GI
# [10] = system: TK-10; experiment: Growth inhibition of Homo sapiens (human) TK10 cells at 10 uM after 48 hr by SRB assay; details: TK-10, 48 h, read-out: GI
# [11] = system: Pseudomonas aeruginosa; experiment: Antimicrobial activity against Pseudomonas aeruginosa ATCC 10145 after 48 hr by two-fold serial broth dilution method; details: ATCC 10145, 48 h
# [12] = system: SNB-19; experiment: Anticancer activity against Homo sapiens (human) SNB19 cells after 48 hr by SRB assay; details: SNB-19, 48 h
# [13] = system: KM12; experiment: Anticancer activity against Homo sapiens (human) KM12 cells after 48 hr by SRB assay; details: KM12, 48 h
# [14] = system: HCC 2998; experiment: Anticancer activity against Homo sapiens (human) HCC2998 cells after 48 hr by SRB assay; details: HCC 2998, 48 h
# [15] = system: NCI-H522; experiment: Anticancer activity against Homo sapiens (human) NCI-H522 cells after 48 hr by SRB assay; details: NCI-H522, 48 h
# [16] = system: NCI-H23; experiment: Growth inhibition of Homo sapiens (human) NCI-H23 cells at 10 uM after 48 hr by SRB assay; details: NCI-H23, 48 h, read-out: GI
# [17] = system: T47D; experiment: Anticancer activity against Homo sapiens (human) T47D cells after 48 hr by SRB assay
# [18] = system: Hs-578T; experiment: Anticancer activity against Homo sapiens (human) Hs 578T cells after 48 hr by SRB assay
# [19] = system: DU-145; experiment: Anticancer activity against Homo sapiens (human) DU145 cells after 48 hr by SRB assay; details: DU-145, 48 h
# [20] = system: UO-31; experiment: Anticancer activity against Homo sapiens (human) UO31 cells after 48 hr by SRB assay; details: UO-31, 48 h
# [21] = system: ACHN; experiment: Anticancer activity against Homo sapiens (human) ACHN cells after 48 hr by SRB assay
# [22] = system: ACHN; experiment: Growth inhibition of Homo sapiens (human) ACHN cells at 10 uM after 48 hr by SRB assay; details: read-out: GI
# [23] = system: SK-OV-3; experiment: Growth inhibition of Homo sapiens (human) SKOV3 cells at 10 uM after 48 hr by SRB assay; details: SK-OV-3, 48 h, read-out: GI
# [24] = system: OVCAR-8; experiment: Growth inhibition of Homo sapiens (human) OVCAR8 cells at 10 uM after 48 hr by SRB assay; details: OVCAR-8, 48 h, read-out: GI
# [25] = system: 786-0; experiment: Anticancer activity against Homo sapiens (human) 786-0 cells after 48 hr by SRB assay; details: 786-0, 48 h
# [26] = system: OVCAR-4; experiment: Anticancer activity against Homo sapiens (human) OVCAR4 cells after 48 hr by SRB assay; details: OVCAR-4, 48 h
# [27] = system: OVCAR-3; experiment: Anticancer activity against Homo sapiens (human) OVCAR3 cells after 48 hr by SRB assay; details: OVCAR-3, 48 h
# [28] = system: SK-MEL-28; experiment: Anticancer activity against Homo sapiens (human) SK-MEL-28 cells after 48 hr by SRB assay; details: SK-MEL-28, 48 h
# [29] = system: IGROV-1; experiment: Growth inhibition of Homo sapiens (human) IGROV1 cells at 10 uM after 48 hr by SRB assay; details: IGROV-1, 48 h, read-out: GI
# [30] = system: LOX IMVI; experiment: Growth inhibition of Homo sapiens (human) LOXIMVI cells at 10 uM after 48 hr by SRB assay; details: read-out: GI
# [31] = system: U-251; experiment: Growth inhibition of Homo sapiens (human) U251 cells at 10 uM after 48 hr by SRB assay; details: U-251, 48 h, read-out: GI
# [32] = system: SNB-19; experiment: Growth inhibition of Homo sapiens (human) SNB19 cells at 10 uM after 48 hr by SRB assay; details: SNB-19, 48 h, read-out: GI
# [33] = system: HCT-15; experiment: Growth inhibition of Homo sapiens (human) HCT15 cells at 10 uM after 48 hr by SRB assay; details: HCT-15, 48 h, read-out: GI
# [34] = read-out: LC50 (the source's name)
smiles,measurement,setting,value
COc1ccc(OC)c(/C=C/C(=O)N/N=C/c2ccc(Cl)cc2)c1,GI50,[1],242 nM
same,TGI,[1],> 100000 nM
same,CC50,[1]; [34],> 100000 nM
same,GI50,[2],39 nM
same,TGI,[2],16400 nM
same,CC50,[2]; [34],> 100000 nM
same,GI50,[3],523 nM
same,TGI,[3],> 100000 nM
same,CC50,[3]; [34],> 100000 nM
same,GI50,[4],48.8 nM
same,TGI,[4],> 100000 nM
same,CC50,[4]; [34],> 100000 nM
same,GI50,[5],78.5 nM
same,TGI,[5],483 nM
same,CC50,[5]; [34],> 100000 nM
same,inhibition of growth at 10 µM,[6],94.3%
same,inhibition of growth at 10 µM,[7],97.7%
same,inhibition of growth at 10 µM,[8],94.8%
same,inhibition of growth at 10 µM,[9],104%
same,inhibition of growth at 10 µM,[10],49%
same,MBC,[11],50 µg/mL
same,MIC,[11],50 µg/mL
same,GI50,[12],340 nM
same,TGI,[12],> 100000 nM
same,CC50,[12]; [34],> 100000 nM
same,GI50,[13],52.2 nM
same,TGI,[13],8480 nM
same,CC50,[13]; [34],> 100000 nM
same,GI50,[14],139 nM
same,TGI,[14],1190 nM
same,CC50,[14]; [34],6520 nM
same,GI50,[15],29.2 nM
same,TGI,[15],382 nM
same,CC50,[15]; [34],> 100000 nM
same,inhibition of growth at 10 µM,[16],65.2%
same,GI50,[17],160 nM
same,TGI,[17],> 100000 nM
same,CC50,[17]; [34],> 100000 nM
same,GI50,[18],284 nM
same,TGI,[18],> 100000 nM
same,CC50,[18]; [34],> 100000 nM
same,GI50,[19],217 nM
same,TGI,[19],8400 nM
same,CC50,[19]; [34],> 100000 nM
same,GI50,[20],3370 nM
same,LC50 (50% lethal concentration),[20],> 100000 nM
same,TGI,[20],> 100000 nM
same,GI50,[21],1490 nM
same,TGI,[21],> 100000 nM
same,CC50,[21]; [34],> 100000 nM
same,inhibition of growth at 10 µM,[22],51.6%
same,inhibition of growth at 10 µM,[23],105%
same,inhibition of growth at 10 µM,[24],79%
same,GI50,[25],326 nM
same,TGI,[25],> 100000 nM
same,CC50,[25]; [34],> 100000 nM
same,GI50,[26],439 nM
same,TGI,[26],> 100000 nM
same,CC50,[26]; [34],> 100000 nM
same,GI50,[27],33.5 nM
same,LC50,[27],> 100000 nM
same,TGI,[27],115 nM
same,GI50,[28],372 nM
same,LC50 (concentration killing 50% of cells),[28],> 100000 nM
same,TGI,[28],> 100000 nM
same,inhibition of growth at 10 µM,[29],82.1%
same,inhibition of growth at 10 µM,[30],63.3%
same,inhibition of growth at 10 µM,[31],81.6%
same,inhibition of growth at 10 µM,[32],77.4%
same,inhibition of growth at 10 µM,[33],70.6%

# Source: ChEMBL document CHEMBL3046389, “Synthesis and biological evaluation of novel hydroquinone dimethyl ethers as potential anticancer and antimicrobial agents” (2013)
